Where two headings read alike, the source gives them in different places.

This note sets out measurements from article PMC10452181, “Synthesis and Biological Evaluation of Cyclobutane-Based β3 Integrin Antagonists: A Novel Approach to Targeting Integrins for Cancer Therapy” (Cancers, 2023).

The target in one data set is T1, αvβ3 (Homo sapiens, UniProt P05106+P06756).
T1 construct: endogenous in cells; host or cells: SK-Mel-2 melanoma cells
Put plainly: Sk-Mel-2 cell adhesion to immobilised fibronectin (cell-binding assay, MTT readout). The class given is cell-based. As to conditions: Sk-Mel-2 adhesion to Fn, mean ± SD. How it is done: First, 96-well plates (Corning, VWR) were coated overnight at 4 °C with 0.5 μg/well fibronectin (Sigma). SK-Mel-2 cells were trypsinised, washed and resuspended in RPMI medium only at 10^5 cells/mL. Cells (100 µL/well) were treated with compound (DMSO final concentration 0.1%) at the indicated concentration for 4 hrs on a rotary shaker. Plates were washed (3 × PBS) and blocked with PBS/5% BSA for 2 hrs at 37 °C prior to adding the cells. Cells were incubated on the plates at 37 °C in a humidified chamber with 5% CO2 for 1 hr. The plates were washed 3× with PBS and a 200 µL/well RPMI medium containing 10% FCS added. The plates were incubated overnight at 37 °C as above. Finally, 0.5 mg/mL of 3-(4,5-dimethythiazol-2-yl)-2,5-diphenyl tetrazolium bromide (MTT) was added to each well and the plates incubated for a further 4 h. The medium was removed, and the insoluble formazan dissolved in 150 µL of DMSO. Absorbance was measured at 540 nm using a Thermo Multiskan EX (Thermofisher, UK)and Ascent Software (v2.6). Total binding was determined based on controls lacking any compounds (100% binding) in fibronectin-coated wells and uncoated wells blocked with BSA (0% binding) and corrected for background (no cells, fibronectin-coated).
As an initial test of anti-β3 activity, the ability of compounds to inhibit the adhesion of melanoma cells expressing high levels of αvβ3 and low levels of other RGD-binding integrins such as αvβ5 and α5β1 to immobilised fibronectin was evaluated.
Cells were seeded onto precoated plates in the presence or absence of putative antagonists and the number of adherent cells quantified colorimetrically.

Another data set in a line: in vitro. The following applies: human. The class given is cell-based, human. How it is done: (§1) Before use in cell-based assays of integrin function, the effect of compounds on cell proliferation was tested using the MTT assay to avoid adhesion results being confounded by cell death (Supplementary Table S1). The effect of compounds on cell adhesion was then initially tested at a single, nontoxic concentration to identify active antagonists for further characterisation; those displaying a promising activity in the adhesion assay were tested at a wider range of concentrations to determine the IC50 (Table 2). […] Nevertheless, it is a cost-effective initial screening method. page 4: Table S1. Cytotoxicity of compounds on the cell lines used in the functional assays (measured by MTT assay). Cells (2000 cells/well for Sk-Mel-2; 1 x 10^4 cells/mL for M14) were incubated for 96 hours at 37 ° C in a total volume of 200 μL/well (180 μL medium + 20 μ L test compound solution). After 96 hours, the medium was replaced by fresh medium containing 0.5 mg/ml (end conc.) MTT per well, incubated for 4 h then the plate processed and read as described in the main text. […] ICT9053 41 naphthyridine 1 NHSO2Mes H Ester 52.6 ± 0.6 72.7 ± 9.8 ICT9065 42 naphthyridine 1 H H Ester >100 - ICT9079 43 naphthyridine 0 NHSO2Mes H Ester ~100 - ICT9061 44 naphthyridineT 1 NHSO2Mes H Ester 46.8 ± 10.7 - […] Ester 65.4 ± 11.1 >100 […] Ester 9.6 ± 5.7 >100 […] Ester >100 - […] Ester 54.6 ± 11.0 - […] Ester >5 3.3 ± 0.8 […] ICT9028 51 pyrimidine 2 NHSO2Ph H Acid >100 - ICT9031 52 pyrimidineT 1 NHSO2Mes H Acid >100 - ICT9090 53 pyrimidineT 2 NHSO2Mes H Acid >50 - ICT9029 54 pyrimidineT 2 NHSO2Ph H Acid >100 - ICT9063 55 naphthyridine 1 NHSO2Mes H Acid 61.7 ± 2.8 - […] Acid 45.5 ± 7.9 >100 […] 42.5 ± 1.8 >50 RGDS >50 - T trans configuration of cyclobutane sidechains.

The next data set concerns M14 cells. Put plainly: cells. The class given is cell-based, human. As to conditions: 24 h. The protocol: M14 cells (4 × 10^5/mL in RPMI 1640 medium) were seeded in six-well plates and incubated at 37 °C in a 5% CO2 humidified atmosphere for 48 h. The resulting confluent monolayer was scratched with a sterile P200 pipette tip to create a gap (approximately 2 cm in length and 650 μm in width) in the centre of the well. The medium was removed, and the cells washed with Hank’s balanced salt solution (HBSS) (1 mL) and replaced with a medium containing the test antagonist. After 24 h, the cells were washed twice with HBSS and fixed with ice-pre-cooled methanol for thirty minutes at −20 °C. Following hydration with two washes in PBS, the monolayers were counterstained with Harris’s haematoxylin solution for two minutes, then washed in tap water for one minute and left to dry at room temperature. The plates were observed using an inverted microscope, and digital images captured.
The anti-αvβ3 activity of selected compounds was confirmed in a wound-healing assay (Figure 3). A number of cell lines were initially investigated for their suitability in this assay. The Sk-Mel-2 cell line which adhered well to fibronectin in the adhesion assay migrated very slowly; therefore, M14 melanoma cells which combined high levels of αvβ3 with rapid migration and low levels of proliferation over the assay period (Supplementary Figure S4) were selected.

The target of another data set is T2, αIIbβ3 (Homo sapiens, UniProt P05106+P08514).
T2 construct: purchased Sigma
T2 sequence (P08514 32-887 limits assumed): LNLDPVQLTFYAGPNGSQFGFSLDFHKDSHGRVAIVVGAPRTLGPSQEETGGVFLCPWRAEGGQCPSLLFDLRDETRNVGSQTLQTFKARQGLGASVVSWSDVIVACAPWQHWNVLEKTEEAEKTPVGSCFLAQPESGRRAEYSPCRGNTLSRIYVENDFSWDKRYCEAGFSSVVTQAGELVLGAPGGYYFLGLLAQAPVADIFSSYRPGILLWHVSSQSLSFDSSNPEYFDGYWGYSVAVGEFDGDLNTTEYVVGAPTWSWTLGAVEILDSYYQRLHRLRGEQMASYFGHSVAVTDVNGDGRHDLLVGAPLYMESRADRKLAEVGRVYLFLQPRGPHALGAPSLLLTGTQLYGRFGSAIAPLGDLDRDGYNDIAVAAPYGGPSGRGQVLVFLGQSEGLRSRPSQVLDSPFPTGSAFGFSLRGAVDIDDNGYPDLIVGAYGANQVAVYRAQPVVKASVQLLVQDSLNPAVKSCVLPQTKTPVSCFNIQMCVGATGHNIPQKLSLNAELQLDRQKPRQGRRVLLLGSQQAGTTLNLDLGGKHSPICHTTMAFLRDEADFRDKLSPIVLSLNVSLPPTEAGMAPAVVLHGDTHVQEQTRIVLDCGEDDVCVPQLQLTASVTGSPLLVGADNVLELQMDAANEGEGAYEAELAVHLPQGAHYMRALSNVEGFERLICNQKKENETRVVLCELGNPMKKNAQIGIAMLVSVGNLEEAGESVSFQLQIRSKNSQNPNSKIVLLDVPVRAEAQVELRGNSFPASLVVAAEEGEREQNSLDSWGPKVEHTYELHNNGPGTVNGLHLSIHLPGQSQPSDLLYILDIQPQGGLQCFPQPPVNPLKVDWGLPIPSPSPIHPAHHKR
T2 sequence (P08514 891-1039 partner limits assumed): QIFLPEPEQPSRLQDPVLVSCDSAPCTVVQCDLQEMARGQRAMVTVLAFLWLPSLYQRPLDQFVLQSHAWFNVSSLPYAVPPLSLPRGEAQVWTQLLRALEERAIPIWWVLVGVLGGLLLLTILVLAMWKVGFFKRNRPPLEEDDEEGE
T2 sequence (P05106 27-788): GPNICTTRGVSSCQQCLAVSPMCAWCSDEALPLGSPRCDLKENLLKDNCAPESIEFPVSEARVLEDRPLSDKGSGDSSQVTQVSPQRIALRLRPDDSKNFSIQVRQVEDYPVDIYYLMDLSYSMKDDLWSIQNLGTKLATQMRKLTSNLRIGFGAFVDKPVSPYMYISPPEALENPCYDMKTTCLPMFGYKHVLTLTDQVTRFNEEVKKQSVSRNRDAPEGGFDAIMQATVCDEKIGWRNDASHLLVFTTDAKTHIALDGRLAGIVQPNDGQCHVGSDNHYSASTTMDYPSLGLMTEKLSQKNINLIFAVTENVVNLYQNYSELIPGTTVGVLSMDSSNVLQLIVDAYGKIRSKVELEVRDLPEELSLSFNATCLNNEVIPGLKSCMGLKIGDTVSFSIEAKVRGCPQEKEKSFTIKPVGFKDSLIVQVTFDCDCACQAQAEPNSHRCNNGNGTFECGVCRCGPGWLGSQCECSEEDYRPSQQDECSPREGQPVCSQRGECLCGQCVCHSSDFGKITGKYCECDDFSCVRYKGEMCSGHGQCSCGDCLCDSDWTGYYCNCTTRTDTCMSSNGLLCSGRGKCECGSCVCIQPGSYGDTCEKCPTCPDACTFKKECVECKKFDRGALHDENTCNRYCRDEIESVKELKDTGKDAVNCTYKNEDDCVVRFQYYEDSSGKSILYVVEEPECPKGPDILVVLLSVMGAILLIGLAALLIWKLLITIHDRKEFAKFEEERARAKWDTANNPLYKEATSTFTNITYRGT
As to the kind of experiment: αIIbβ3/fibrinogen purified protein binding ELISA. The following applies: mean ± SD; for IC50: read-out: IC50 (αIIbβ3/Fg). How it is done: ELISA assays were performed as previously described with minor modifications. Briefly, serial dilutions of compounds were prepared in dimethyl sulfoxide (DMSO). C8 Maxi Immuno modules (Fisher Scientific) were incubated overnight at 4 °C with 0.5 μg/well of fibrinogen (Sigma) in sterile phosphate buffered saline (PBS, 0.2 g/L KCl, 8.0 g/L NaCl, 0.2 KH2PO4, 1.15 g/L Na2HPO4, pH 7.4). All subsequent wash steps were performed using 25 mM Tris, pH 7.6, 150 mM NaCl, 1 mM MnCl2, 1 mg/mL BSA, and binding/inhibition was carried out in 25 mM Tris, pH 7.6, 150 mM NaCl, 1 mM MnCl2, 1 mM MgCl2, 1 mM CaCl2, 1 mg/mL BSA.
Wells were washed and blocked with a blocking solution (PBS, 0.1% Tween 20, 3% BSA) for 1 h at 37 °C. Compounds were added to the wells at indicated concentrations (final 0.5% DMSO) in the presence of 0.5 µg/well αIIbβ3 (Sigma) and incubated at room temp for 1 h. After 3 washes, primary anti-αIIb (1:200 dilution, Santa Cruz Biotech, Heidelberg, Germany) and antigoat–HRP (1:500 dilution, Dako, Agilent, Santa Clara, CA, USA) were added at room temp for 1 h. The wells were washed and incubated with 0.1 mg/mL tetra-methylbenzidine (Sigma) for 25 min and the reaction was stopped with 1N H2SO4 (100 μL/well). The absorbance was measured at 450 nm using a Multiscan Spectrum reader (Thermo Scientific, Thermofisher, UK) and SkanIT RE (v2.4.4.5) software. Results were plotted as percent binding vs. log concentration and IC50 values determined.

The test system of a further data set is platelet aggregation. Put plainly: ADP-induced platelet aggregation in hirudin-treated whole blood (ex vivo). The class given is cell-based, human. As to conditions: ADP 6.4 μM, 100 μM. The protocol: 2.7. Platelet Aggregation Assay
Platelet aggregation was measured in hirudin-anticoagulated whole blood from a healthy donor with ADP as agonist (end concentration 6.4 μM) using a Multiplate® impedance aggregometer (Dynabyte Informationssysteme GmbH, Munich, Germany). At 37 °C, cells were charged with 300 μL of saline, 300 μL of blood, 1 μL of compound (0.1% DMSO) and incubated for 3 min. The agonist was added and the increase in electrical impedance measured from 2 electrode pairs/cell for 6 min, transformed into arbitrary units (AU), and the area under the curve was calculated.

A further data set concerns Sk-Mel-2. As to the kind of experiment: in vitro. The class given is cell-based, human. The protocol: as §1
For a further data set, the system named is M14. As to the kind of experiment: Cytotoxicity by MTT assay, 96 h, M14. As to conditions: MTT, 96 hours. The class given is cell-based, human. The protocol: as §1
For orientation: Formazan colour is commonly taken as a measure of viable cells.

The nature of data set [1]: Cytotoxicity by MTT assay, 96 h, M14. As to conditions: human. The class given is cell-based, human. How it is done: as §1

T1 sequence (P06756 31-889 limits assumed): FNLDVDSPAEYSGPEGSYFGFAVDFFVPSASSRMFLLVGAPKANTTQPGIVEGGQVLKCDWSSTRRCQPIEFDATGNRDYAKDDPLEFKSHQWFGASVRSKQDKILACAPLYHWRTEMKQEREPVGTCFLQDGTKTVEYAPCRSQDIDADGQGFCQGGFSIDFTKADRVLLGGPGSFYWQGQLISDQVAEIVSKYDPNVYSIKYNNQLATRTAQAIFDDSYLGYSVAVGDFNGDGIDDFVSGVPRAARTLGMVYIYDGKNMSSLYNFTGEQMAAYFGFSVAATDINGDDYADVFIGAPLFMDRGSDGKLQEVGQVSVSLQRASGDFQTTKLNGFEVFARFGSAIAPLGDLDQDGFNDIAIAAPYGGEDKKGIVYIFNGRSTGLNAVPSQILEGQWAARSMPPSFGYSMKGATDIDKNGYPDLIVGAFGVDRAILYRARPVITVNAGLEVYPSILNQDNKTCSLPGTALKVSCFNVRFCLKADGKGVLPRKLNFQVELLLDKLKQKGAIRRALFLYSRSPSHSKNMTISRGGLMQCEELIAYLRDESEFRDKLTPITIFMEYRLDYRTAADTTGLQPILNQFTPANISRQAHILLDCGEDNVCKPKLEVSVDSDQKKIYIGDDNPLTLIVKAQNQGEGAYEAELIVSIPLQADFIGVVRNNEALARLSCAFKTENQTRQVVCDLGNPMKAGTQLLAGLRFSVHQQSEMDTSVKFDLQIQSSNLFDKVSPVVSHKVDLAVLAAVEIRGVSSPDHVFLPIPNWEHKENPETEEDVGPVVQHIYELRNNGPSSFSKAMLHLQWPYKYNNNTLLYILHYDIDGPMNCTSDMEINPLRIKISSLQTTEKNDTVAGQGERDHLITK
T1 sequence (P06756 891-1048 partner limits assumed): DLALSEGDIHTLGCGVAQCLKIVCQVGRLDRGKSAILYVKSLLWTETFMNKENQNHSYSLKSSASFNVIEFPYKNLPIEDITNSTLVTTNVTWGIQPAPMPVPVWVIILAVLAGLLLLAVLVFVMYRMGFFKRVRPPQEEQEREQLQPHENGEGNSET
T1 sequence (P05106 27-788): as the sequence (P05106 27-788) above

For `NC(N)=NCCC[C@H](N)C(=O)NCC(=O)N[C@@H](CC(=O)O)C(=O)N[C@@H](CO)C(=O)O` [RGDS, reference compound], 5 µM produced 68.5 ± 29.1% inhibition at αvβ3 (5 μM). Also, 50 µM produced 45.8 ± 16.6% inhibition on αvβ3 (50 μM). Further, the IC50 at 96 h in “in vitro” is > 50 µM.

Regarding `COC(=O)[C@H](CNC(=O)[C@H]1C[C@H](CCc2ccc3c(n2)NCCC3)C1)NS(=O)(=O)c1c(C)cc(C)cc1C` [ICT9055 46, (S)-methyl 3-((1r,3r)-3-(2-(5,6,7,8-tetrahydro-1,8-naphthyridin-2-yl)ethyl)cyclobutanecarboxamido)-2-(2,4,6-trimethylphenylsulfonamido)propanoate], the “Adhesion % Inhibition @ 5 μM” value at αvβ3 (5 μM) is given as 98.4 ± 1.9%. Besides, the IC50 at αvβ3 was 0.34 ± 0.33 µM; with M14 cells (M14 scratch wound, mean ± SD, read-out: Migration IC50) it was < 0.1 µM; at αIIbβ3, > 50 µM; in the data set on Sk-Mel-2 it was 9.6 ± 5.7 µM; in the data set with M14, > 100 µM. For the same compound, the “% Inhibition (αIIbβ3/Fg) @ 50 μM” value at αIIbβ3 was determined as 0 ± 9.8%. In addition, the “% Inhibition (Platelet Aggregation) @ 100 μM” value in the data set on platelet aggregation was 5.6%.

For the compound `COC(=O)CCNC(=O)C1CC(CCCNc2ncccn2)C1` (centres unmarked) [ICT9003 22, 3-({3-[3-(Pyrimidin-2-ylamino)-propyl]-cyclobutanecarbonyl}-amino)-propionic acid methyl ester], the melting point (commonly the temperature of the solid-liquid transition) lay within 94 to 95 °C. Further, the IC50 in the data set with M14 cells (Homo sapiens, M14 scratch wound, mean ± SD, read-out: Migration IC50) amounted to 4.8 ± 0.2 µM. Besides, in the data set “in vitro”, the IC50 at 96 h is > 100 µM. Further, the IC50 at 96 h in data set [1] (M14 cells, MTT, 96 hours, read-out: M14 IC50 (cytotoxicity)) was > 100 µM.

Turning to `Cc1cc(C)c(S(=O)(=O)N[C@@H](CNC(=O)[C@H]2C[C@@H](CCCNc3ncccn3)C2)C(=O)O)c(C)c1` [ICT9090 53, (S)-3-((1s,3s)-{3-[3-(Pyrimidin-2-ylamino)-propyl]-cyclobutanecarbonyl}-amino)-2-(2,4,6-trimethyl-benzenesulfonylamino)-propionic acid], the “Adhesion % Inhibition @ 50 μM” value on αvβ3 (50 μM) is reported as 68.9 ± 10.9%. For the same compound, the IC50 at αvβ3 was 11 ± 11.6 µM; at αIIbβ3, 0.39 ± 0.19 µM; with Sk-Mel-2, > 50 µM. Moreover, the “% Inhibition (Platelet Aggregation) @ 100 μM” value with platelet aggregation is 21.2 ± 7.8%.

Consider `Cc1cc(C)c(S(=O)(=O)N[C@@H](CNC(=O)C2CC(CCc3ccc4cccnc4n3)C2)C(=O)O)c(C)c1` (stereo partly drawn) [ICT9063 55, (S)-3-{(1r,3r)-[3-(2-[1, 8] Naphthyridin-2-yl-ethyl)-cyclobutanecarbonyl]-amino}-2-(2,4,6-trimethyl-benzenesulfonylamino)-propionic acid], for which, at αvβ3 (5 μM), the “Adhesion % Inhibition @ 5 μM” value amounted to 20.7 ± 11.9%. In addition, the IC50 was > 5 µM on αvβ3, 4.1 ± 2.2 µM on αIIbβ3 and 61.7 ± 2.8 µM in the data set on Sk-Mel-2. The “% Inhibition (αIIbβ3/Fg) @ 50 μM” value on αIIbβ3 stood at 84.5 ± 8.6%. The “% Inhibition (Platelet Aggregation) @ 100 μM” value in the data set on platelet aggregation was 13.0%.

`CC(C)[C@@H]1NC(=O)[C@@H](Cc2ccccc2)NC(=O)[C@H](CC(=O)O)NC(=O)CNC(=O)[C@H](CCCNC(=N)N)NC1=O` [cRGDfV, reference compound] had an IC50 in the data set with M14 cells of 4 ± 0.07 µM. For the same compound, the figures for the IC50 at 96 h (in “in vitro”; in data set [1]) were 42.5 ± 1.8 µM and > 50 µM, respectively.
